Source: PubChem BioAssay (NCI)
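Results reflect a 48-hour exposure of cells in 96-well plates to compound at five concentrations. The concentration for full growth arrest is given as TGI.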

How the values were obtained:
Assay in all cases: growth of human tumour cells (NCI), 48 h
RXF 393 renal = test system: RXF 393 renal
A549 NSCLC = test system: A549 NSCLC
PC-3 prostate = test system: PC-3 prostate
MDA-MB-231 breast = test system: MDA-MB-231 breast
ACHN renal = test system: ACHN renal
MOLT-4 leukemia = test system: MOLT-4 leukemia
OVCAR-5 ovarian = test system: OVCAR-5 ovarian
MDA-N = test system: MDA-N
NCI/ADR-RES ovarian = test system: NCI/ADR-RES ovarian
OVCAR-4 ovarian = test system: OVCAR-4 ovarian
HCT-116 colon = test system: HCT-116 colon
SNB-75 CNS = test system: SNB-75 CNS
KM12 colon = test system: KM12 colon
OVCAR-8 ovarian = test system: OVCAR-8 ovarian
A498 renal = test system: A498 renal
HT29 colon = test system: HT29 colon
SF-295 CNS = test system: SF-295 CNS
COLO 205 colon = test system: COLO 205 colon
LOX IMVI melanoma = test system: LOX IMVI melanoma
TK-10 renal = test system: TK-10 renal
786-0 renal = test system: 786-0 renal
SN12C renal = test system: SN12C renal
UO-31 renal = test system: UO-31 renal
MCF7 breast = test system: MCF7 breast
SR leukemia = test system: SR leukemia
RPMI-8226 leukemia = test system: RPMI-8226 leukemia
HL-60(TB) leukemia = test system: HL-60(TB) leukemia
SK-MEL-5 melanoma = test system: SK-MEL-5 melanoma
EKVX NSCLC = test system: EKVX NSCLC
MDA-MB-435 = test system: MDA-MB-435
CCRF-CEM leukemia = test system: CCRF-CEM leukemia
HOP-92 NSCLC = test system: HOP-92 NSCLC
T-47D breast = test system: T-47D breast
SF-268 CNS = test system: SF-268 CNS
U251 CNS = test system: U251 CNS
SW-620 colon = test system: SW-620 colon
CAKI-1 renal = test system: CAKI-1 renal
SF-539 CNS = test system: SF-539 CNS
UACC-257 melanoma = test system: UACC-257 melanoma
NCI-H460 lung = test system: NCI-H460 lung
SK-MEL-28 melanoma = test system: SK-MEL-28 melanoma
HS 578T breast = test system: HS 578T breast
HCT-15 colon = test system: HCT-15 colon
K-562 leukemia = test system: K-562 leukemia
UACC-62 melanoma = test system: UACC-62 melanoma
SK-OV-3 ovarian = test system: SK-OV-3 ovarian
HOP-62 NSCLC = test system: HOP-62 NSCLC
HCC-2998 colon = test system: HCC-2998 colon
OVCAR-3 ovarian = test system: OVCAR-3 ovarian
NCI-H23 lung = test system: NCI-H23 lung
MALME-3M melanoma = test system: MALME-3M melanoma
BT-549 breast = test system: BT-549 breast
NCI-H522 lung = test system: NCI-H522 lung
NCI-H226 lung = test system: NCI-H226 lung
IGROV1 ovarian = test system: IGROV1 ovarian
DU-145 prostate = test system: DU-145 prostate
SNB-19 CNS = test system: SNB-19 CNS
SK-MEL-2 melanoma = test system: SK-MEL-2 melanoma
M14 melanoma = test system: M14 melanoma

## COC(=O)c1ccccc1/C=C1/Cc2cccc(C)c2C1=O
RXF 393 renal
  TGI: > 100 µM
A549 NSCLC
  TGI: > 100 µM
PC-3 prostate
  TGI: > 100 µM
MDA-MB-231 breast
  TGI: > 100 µM
ACHN renal
  TGI: > 100 µM
MOLT-4 leukemia
  TGI: > 100 µM
OVCAR-5 ovarian
  TGI: > 100 µM
MDA-N
  TGI: > 100 µM
NCI/ADR-RES ovarian
  TGI: > 100 µM
OVCAR-4 ovarian
  TGI: > 100 µM
HCT-116 colon
  TGI: > 100 µM
SNB-75 CNS
  TGI: > 100 µM
KM12 colon
  TGI: > 100 µM
OVCAR-8 ovarian
  TGI: > 100 µM
A498 renal
  TGI: > 100 µM
HT29 colon
  TGI: > 100 µM
SF-295 CNS
  TGI: > 100 µM
COLO 205 colon
  TGI: > 100 µM
LOX IMVI melanoma
  TGI: > 100 µM
TK-10 renal
  TGI: > 100 µM
786-0 renal
  TGI: > 100 µM
SN12C renal
  TGI: > 100 µM
UO-31 renal
  TGI: > 100 µM
MCF7 breast
  TGI: > 100 µM
SR leukemia
  TGI: > 100 µM
RPMI-8226 leukemia
  TGI: > 100 µM
HL-60(TB) leukemia
  TGI: > 100 µM
SK-MEL-5 melanoma
  TGI: > 100 µM
EKVX NSCLC
  TGI: > 100 µM
MDA-MB-435
  TGI: > 100 µM
CCRF-CEM leukemia
  TGI: > 100 µM
HOP-92 NSCLC
  TGI: > 100 µM
T-47D breast
  TGI: > 100 µM
SF-268 CNS
  TGI: > 100 µM
U251 CNS
  TGI: > 100 µM
SW-620 colon
  TGI: > 100 µM
CAKI-1 renal
  TGI: > 100 µM
SF-539 CNS
  TGI: > 100 µM
UACC-257 melanoma
  TGI: > 100 µM
NCI-H460 lung
  TGI: > 100 µM
SK-MEL-28 melanoma
  TGI: > 100 µM
HS 578T breast
  TGI: > 100 µM
HCT-15 colon
  TGI: > 100 µM
K-562 leukemia
  TGI: > 100 µM
UACC-62 melanoma
  TGI: > 100 µM
SK-OV-3 ovarian
  TGI: > 100 µM
HOP-62 NSCLC
  TGI: > 100 µM
HCC-2998 colon
  TGI: > 100 µM
OVCAR-3 ovarian
  TGI: > 100 µM
NCI-H23 lung
  TGI: > 100 µM
MALME-3M melanoma
  TGI: > 100 µM
BT-549 breast
  TGI: > 100 µM
NCI-H522 lung
  TGI: > 100 µM
NCI-H226 lung
  TGI: > 100 µM
IGROV1 ovarian
  TGI: > 100 µM
DU-145 prostate
  TGI: > 100 µM

## COc1ccc(-c2cc(-c3ccccc3)n(C3OCC(OC(C)=O)C(OC(C)=O)C3OC(C)=O)c(=S)c2C#N)cc1 (centres undefined)
RXF 393 renal
  TGI: > 100 µM
A549 NSCLC
  TGI: > 100 µM
PC-3 prostate
  TGI: > 100 µM
MDA-MB-231 breast
  TGI: > 100 µM
ACHN renal
  TGI: > 100 µM
MOLT-4 leukemia
  TGI: > 100 µM
OVCAR-5 ovarian
  TGI: > 100 µM
MDA-N
  TGI: > 100 µM
NCI/ADR-RES ovarian
  TGI: > 100 µM
OVCAR-4 ovarian
  TGI: > 100 µM
HCT-116 colon
  TGI: > 100 µM
SNB-75 CNS
  TGI: > 100 µM
KM12 colon
  TGI: > 100 µM
OVCAR-8 ovarian
  TGI: > 100 µM
SNB-19 CNS
  TGI: > 100 µM
A498 renal
  TGI: > 100 µM
HT29 colon
  TGI: > 100 µM
SF-295 CNS
  TGI: > 100 µM
COLO 205 colon
  TGI: > 100 µM
LOX IMVI melanoma
  TGI: > 100 µM
TK-10 renal
  TGI: > 100 µM
SN12C renal
  TGI: > 100 µM
UO-31 renal
  TGI: > 100 µM
MCF7 breast
  TGI: > 100 µM
SR leukemia
  TGI: > 100 µM
RPMI-8226 leukemia
  TGI: > 100 µM
HL-60(TB) leukemia
  TGI: > 100 µM
SK-MEL-5 melanoma
  TGI: > 100 µM
EKVX NSCLC
  TGI: > 100 µM
MDA-MB-435
  TGI: > 100 µM
SK-MEL-2 melanoma
  TGI: > 100 µM
M14 melanoma
  TGI: > 100 µM
CCRF-CEM leukemia
  TGI: > 100 µM
HOP-92 NSCLC
  TGI: 53.6 µM
T-47D breast
  TGI: > 100 µM
SF-268 CNS
  TGI: > 100 µM
U251 CNS
  TGI: > 100 µM
SW-620 colon
  TGI: > 100 µM
CAKI-1 renal
  TGI: > 100 µM
SF-539 CNS
  TGI: > 100 µM
UACC-257 melanoma
  TGI: > 100 µM
NCI-H460 lung
  TGI: > 100 µM
SK-MEL-28 melanoma
  TGI: > 100 µM
HS 578T breast
  TGI: > 100 µM
HCT-15 colon
  TGI: > 100 µM
K-562 leukemia
  TGI: > 100 µM
UACC-62 melanoma
  TGI: > 100 µM
SK-OV-3 ovarian
  TGI: > 100 µM
HOP-62 NSCLC
  TGI: > 100 µM
HCC-2998 colon
  TGI: > 100 µM
OVCAR-3 ovarian
  TGI: > 100 µM
NCI-H23 lung
  TGI: > 100 µM
MALME-3M melanoma
  TGI: > 100 µM
BT-549 breast
  TGI: > 100 µM
NCI-H522 lung
  TGI: > 100 µM
NCI-H226 lung
  TGI: > 100 µM
IGROV1 ovarian
  TGI: > 100 µM
DU-145 prostate
  TGI: > 100 µM
